Source: paper PMC11367503, “Exploring galectin interactions with human milk oligosaccharides and blood group antigens identifies BGA6 as a functional galectin-4 ligand” (The Journal of Biological Chemistry, 2024)
“And” between values parts separate entries of the source, which are not always exact repeats. Equal entries are not always repeated.

Assays:
Assay type in all cases: binding
human Gal-12 [1] = target: T1, human Gal-12 (Homo sapiens, UniProt Q96DT0); assay: Competitive solid-phase assay (SPA), immobilized asialofetuin, Gal-12; details: mean ± S.D., three independent experiments
T1 construct: To obtain full-length human Gal-12, we adapted our previously optimized procedure for murine Gal-12; made in house; host or cells: Escherichia coli Rosetta 2 (DE3)
T1 sequence (Q96DT0 1-336): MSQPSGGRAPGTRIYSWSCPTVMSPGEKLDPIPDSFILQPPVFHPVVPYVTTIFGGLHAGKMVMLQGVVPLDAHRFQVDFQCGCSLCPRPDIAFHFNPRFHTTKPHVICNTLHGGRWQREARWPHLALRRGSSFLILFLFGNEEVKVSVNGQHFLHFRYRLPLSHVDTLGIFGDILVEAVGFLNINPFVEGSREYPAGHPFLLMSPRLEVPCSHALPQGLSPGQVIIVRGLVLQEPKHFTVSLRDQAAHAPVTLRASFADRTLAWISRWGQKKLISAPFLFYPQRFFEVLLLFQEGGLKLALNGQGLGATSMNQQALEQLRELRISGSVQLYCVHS
Procedure: (§1) The assay was adapted from Rapoport et al. (2010) ([88]). Briefly, 96-well plates (flat-bottom) were coated with 10 μg/ml asialofetuin (ASF, Sigma-Aldrich) in sodium carbonate buffer (pH 9.6) and incubated overnight at 4 °C. Then, wells were washed three times with 100 μl/well PBS-Tween 0.05% (w/v) and blocked with 100 μl/well PBS-bovine serum albumin (BSA) 2% (1 h, room temperature (RT)) in a humid chamber. Meanwhile, equal volumes of human recombinant Gal-1, -3, -4, -7, and -12 (20–40 μg/ml) in PBS-BSA 0.3% buffer were preincubated with the corresponding inhibitors in serial dilutions (2 h, 37 °C). After washing, galectins were detected using the corresponding antigalectin primary detection antibodies in PBS-BSA 0.3% w/v (1 h at RT). For Gal-1, wells were incubated with an in-house purified 100 ng/ml biotinylated rabbit anti–human Gal-1 polyclonal immunoglobulin G. For Gal-3, -4, and -7, a 1:500 dilution of the corresponding biotinylated anti-human galectin antibodies was used (BAF1154, BAF1227, and MAB13391, respectively, R&D Systems). For Gal-12, a rabbit anti-human Gal-12 polyclonal antibody (Santa Cruz Biotechnology, 1:700) was used. For Gal-1, -3, -4, and -7, plates were rinsed three times before adding 0.33 μg/ml horseradish peroxidase (HRP)-labeled streptavidin (Sigma-Aldrich) for 30 min. For Gal-12, an anti-rabbit secondary antibody conjugate coupled to HRP was incubated for 1 h at RT in PBS-BSA 0.3% w/v. After washing, 100 μl TMB solution (0.1 mg/ml tetramethylbenzidine and 0.06% H2O2 in citrate-phosphate buffer, pH 5.0) was added to plates. The reaction was stopped by adding a 2N H2SO4 solution. Absorbance was determined at 450 nm in a Multiskan MS microplate reader (Thermo Fisher Scientific).

human Gal-7 [2] = target: T2, human Gal-7 (Homo sapiens, UniProt P47929); assay: Competitive solid-phase assay (SPA), immobilized asialofetuin, Gal-7; details: for IC50: competitive SPA, immobilized asialofetuin, mean ± S.D., three independent experiments; for affinity of Gal-7 weaker than that shown by Gal-1: SPA, Gal-7 versus Gal-1
T2 construct: made in house; host or cells: Escherichia coli BL21 (DE3)
Procedure: as §1

human Gal-1 [3] = target: T3, human Gal-1 (Homo sapiens, UniProt P09382); assay: Competitive solid-phase assay (SPA), immobilized asialofetuin, Gal-1; details: mean ± S.D., three independent experiments
T3 construct: made in house; host or cells: Escherichia coli BL21 (DE3)
Procedure: as §1

human Gal-3 [4] = target: T4, human Gal-3 (Homo sapiens, UniProt P17931); assay: Competitive solid-phase assay (SPA), immobilized asialofetuin, Gal-3; details: mean ± S.D., three independent experiments
T4 construct: made in house; host or cells: Escherichia coli BL21 (DE3)
Procedure: as §1

human Gal-4 [5] = target: T5, human Gal-4 (Homo sapiens, UniProt P56470); assay: Competitive solid-phase assay (SPA), immobilized asialofetuin, Gal-4; details: mean ± S.D., three independent experiments
T5 construct: His6-SUMO (N, cleaved yes); made in house; host or cells: Escherichia coli BL21 (DE3)
T5 sequence (P56470 1-323): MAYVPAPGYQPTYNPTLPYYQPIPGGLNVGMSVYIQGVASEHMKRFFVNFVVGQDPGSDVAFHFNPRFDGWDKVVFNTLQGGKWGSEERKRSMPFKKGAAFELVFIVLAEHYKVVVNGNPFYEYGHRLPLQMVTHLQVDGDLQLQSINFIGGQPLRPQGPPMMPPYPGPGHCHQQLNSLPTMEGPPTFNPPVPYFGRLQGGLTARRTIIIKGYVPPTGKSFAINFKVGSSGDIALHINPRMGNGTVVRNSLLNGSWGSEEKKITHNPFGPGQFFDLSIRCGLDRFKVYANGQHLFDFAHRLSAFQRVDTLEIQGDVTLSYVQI
Procedure: as §1

human Gal-4 [6] = target: T5, human Gal-4; assay: Isothermal titration calorimetry (ITC), Gal-4; details: Gal-4, PBS, 298 K; for Kd: n fixed to 1.00
Procedure: (§2) All ITC experiments were performed by using a NanoITC (TA Instruments) under previously optimized conditions ([89]). A typical titration involved 20 injections at 300 s intervals of 2.5 μl aliquots of a 2.5 to 10 mM ligand solution into the sample cell (volume 200 μl) containing the different galectins (30–100 μM). The solutions were prepared by dissolving the glycan ligands in degassed PBS buffer at 298 K. The titration cell was continuously stirred at 300 rev/min. The heats of dilution of the ligands in the buffer were subtracted from the titration data. […] Fitting was performed using the Nano Analyze software (TA Instruments; https://www.tainstruments.com/itcrun-dscrun-nanoanalyze-software/) to determine association constants (Ka) and the enthalpy change (ΔH). No reliable fit of the thermodynamic parameters could be obtained for binding affinities above 80 μM.

human Gal-1 [7] = target: T3, human Gal-1; assay: Isothermal titration calorimetry (ITC), Gal-1; details: Gal-1, PBS, 298 K; for Kd: n fixed to 1.00
Procedure: as §2

human Gal-3 [8] = target: T4, human Gal-3; assay: Isothermal titration calorimetry (ITC), Gal-3; details: Gal-3, PBS, 298 K; for Kd: n fixed to 1.00
Procedure: as §2

human Gal-7 [9] = target: T2, human Gal-7; assay: Isothermal titration calorimetry (ITC), Gal-7; details: Gal-7, PBS, 298 K, n fixed to 1.00
Procedure: as §2

human Gal-12 [10] = target: T1, human Gal-12; assay: Isothermal titration calorimetry (ITC), Gal-12; details: Gal-12, PBS, 298 K, n fixed to 1.00
Procedure: as §2

T3 sequence (P09382 whole entry): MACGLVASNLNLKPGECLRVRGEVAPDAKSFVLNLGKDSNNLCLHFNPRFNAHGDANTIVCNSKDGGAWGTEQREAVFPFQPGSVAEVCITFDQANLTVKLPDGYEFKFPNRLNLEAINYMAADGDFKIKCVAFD
T2 sequence (P47929 whole entry): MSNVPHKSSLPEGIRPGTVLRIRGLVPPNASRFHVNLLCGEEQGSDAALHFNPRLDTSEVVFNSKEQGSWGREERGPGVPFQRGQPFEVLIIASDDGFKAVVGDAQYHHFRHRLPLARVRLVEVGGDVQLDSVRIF
T4 sequence (P17931 whole entry): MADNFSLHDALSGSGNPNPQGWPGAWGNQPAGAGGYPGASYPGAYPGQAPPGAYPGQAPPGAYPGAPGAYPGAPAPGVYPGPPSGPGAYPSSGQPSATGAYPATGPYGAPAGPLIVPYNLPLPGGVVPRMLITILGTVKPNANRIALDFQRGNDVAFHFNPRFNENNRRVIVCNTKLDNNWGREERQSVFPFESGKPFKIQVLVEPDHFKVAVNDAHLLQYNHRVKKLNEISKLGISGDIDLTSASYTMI

SMILES | IC50 (human Gal-12 [1]) [mM] | IC50 (human Gal-7 [2]) [mM] | IC50 (human Gal-1 [3]) | IC50 (human Gal-3 [4]) | IC50 (human Gal-4 [5]) | also measured
CC(=O)NC1C(O)CC(OCC2OC(OC3C(CO)OC(O)C(O)C3O)C(O)C(O)C2O)(C(=O)O)OC1C(O)C(O)CO (stereo not drawn) [6’-SL, 6′-sialyllactose] | 53.3 ± 2 | 9.5 ± 0.3 |  |  |  | 
CC(=O)NC1C(OC2C(O)C(CO)OC(OC3C(CO)OC(O)C(O)C3OC3OC(C)C(O)C(O)C3O)C2O)OC(CO)C(OC2OC(CO)C(O)C(O)C2O)C1OC1OC(C)C(O)C(O)C1O (stereo not drawn) [DFH, 3,3-difucosylhexaose (Lewis X hexaose)] | 5.6 ± 0.8 | 9.2 ± 0.2 | 9.7 mM and 9.73 mM | 10.5 ± 0.7 mM | 13.8 ± 3 mM | 
CC(=O)NC1C(O)CC(OC2C(O)C(CO)OC(OC3C(O)C(CO)OC(OC4C(O)C(CO)OC(OC5C(CO)OC(O)C(O)C5O)C4O)C3NC(C)=O)C2O)(C(=O)O)OC1C(O)C(O)CO (stereo not drawn) [LSTa, sialyl-lacto-N-tetraose a] | 9.2 ± 1 | 4.3 ± 0.9 | 1.8 ± 0.1 mM | 7.8 ± 0.8 mM |  | 
CC1OC(OC2C(OC3C(CO)OC(O)C(O)C3O)OC(CO)C(O)C2O)C(O)C(O)C1O (stereo not drawn) [2’-FL, 2′-fucosyllactose] | 63.5 ± 0.8 | 8.3 ± 0.5 | 1.2 mM and 1.23 mM | 4.2 ± 0.3 mM | 1.5 ± 0.6 mM | Kd (human Gal-4 [6]): 0.13 ± 0.009 mM
CC1OC(OC2C(OC3C(CO)OC(O)C(O)C3OC3OC(C)C(O)C(O)C3O)OC(CO)C(O)C2O)C(O)C(O)C1O (stereo not drawn) [DFL, 2′,3-difucosyllactose] | 4.5 ± 0.6 | 18.4 ± 0.3 | 11.9 mM | 9.1 ± 0.9 mM | 14.5 ± 0.7 mM | 
CC(=O)NC1C(OC2C(O)C(CO)OC(OC3C(CO)OC(O)C(O)C3OC3OC(C)C(O)C(O)C3O)C2O)OC(CO)C(OC2OC(C)C(O)C(O)C2O)C1OC1OC(CO)C(O)C(O)C1O (stereo not drawn) [LAH, Lewis A antigen hexaose] | 51.1 ± 5 | 22.2 ± 0.8 |  | 9.3 ± 0.6 mM | 30.4 ± 2 mM | 
CC(=O)NC1C(OC2C(O)C(CO)OC(OC3C(CO)OC(O)C(O)C3O)C2O)OC(CO)C(OC2OC(CO)C(O)C(O)C2O)C1O (stereo not drawn) [LNnT, lacto-N-neotetraose] | 29.3 ± 6 | 3.3 | 0.5 ± 0.1 mM | ~1.8 mM and 1.8 mM | 25.2 mM | -TΔS (human Gal-1 [7]): -3.51 ± 0.19 kcal/mol; ΔH (human Gal-1 [7]): -2.15 ± 0.22 kcal/mol; Kd (human Gal-1 [7]): 0.072 ± 0.008 mM; Kd (human Gal-3 [8]): 0.095 ± 0.009 mM; affinity of Gal-7 weaker than that shown by Gal-1 (human Gal-7 [2]): ca. 5 fold
CC(=O)NC1C(O)CC(OC2C(O)C(CO)OC(OC3C(CO)OC(O)C(O)C3O)C2O)(C(=O)O)OC1C(O)C(O)CO (stereo not drawn) [3’-SL, 3′-sialyllactose] | 11.1 ± 1 | 1.7 ± 0.2 | 2.2 ± 0.03 mM | 11 ± 0.9 mM |  | Kd (human Gal-7 [9]): 0.097 ± 0.009 mM
CC(=O)NC1C(O)OC(CO)C(OC2OC(CO)C(O)C(OC3OC(CO)C(O)C(O)C3NC(C)=O)C2OC2OC(C)C(O)C(O)C2O)C1O (stereo not drawn) [BGA2, blood group A antigen 2] | 25.3 ± 12 | 2.2 ± 0.4 | 6.3 mM and 6.32 mM | 1.9 ± 0.4 mM | 0.2 mM and 0.24 mM | Kd (human Gal-7 [9]): 0.103 ± 0.008 mM; -TΔS (human Gal-4 [6]): 0.263 ± 0.048 kcal/mol; ΔH (human Gal-4 [6]): -5.98 ± 0.48 kcal/mol; Kd (human Gal-4 [6]): 0.065 ± 0.005 mM
CC(=O)NC1C(OC2C(O)C(CO)OC(OC3C(CO)OC(O)C(O)C3O)C2O)OC(CO)C(O)C1OC1OC(CO)C(O)C(O)C1O (stereo not drawn) [LNT, lacto-N-tetraose] | 30.1 ± 5 | 2 | 1.6 ± 0.1 mM | ~1.8 mM and 1.8 mM | 15.1 ± 0.2 mM | Kd (human Gal-7 [9]): 0.106 ± 0.008 mM
CC(=O)NC1C(OC2C(O)C(CO)OC(OC3C(CO)OC(OC4C(O)C(CO)OC(OC5C(CO)OC(OC6C(O)C(CO)OC(OC7C(CO)OC(O)C(O)C7O)C6O)C(NC(C)=O)C5O)C4O)C(NC(C)=O)C3O)C2O)OC(CO)C(OC2OC(CO)C(O)C(O)C2O)C1O (stereo not drawn) [LNnO, lacto-N-neooctaose] | 28.1 ± 5 | 2.1 ± 0.8 | 0.6 ± 0.1 mM | 0.5 ± 0.9 mM | 21.5 mM | -TΔS (human Gal-1 [7]): -2.61 ± 0 kcal/mol; ΔH (human Gal-1 [7]): -3.04 ± 0.48 kcal/mol; Kd (human Gal-1 [7]): 0.073 ± 0.007 mM; -TΔS (human Gal-3 [8]): -5.02 ± 0.48 kcal/mol; ΔH (human Gal-3 [8]): -1.1 ± 0.096 kcal/mol; Kd (human Gal-3 [8]): 0.04 ± 0.003 mM; affinity of Gal-7 weaker than that shown by Gal-1 (human Gal-7 [2]): ca. 5 fold
CC(=O)NC1C(O)OC(CO)C(OC2OC(CO)C(O)C(O)C2O)C1OC1OC(C)C(O)C(O)C1O (stereo not drawn) [Le^X, Lewis X trisaccharide] | 2 ± 0.3 | 15.1 ± 2 | 8.2 ± 0.9 mM | 9.5 ± 0.5 mM | 26.2 ± 0.9 mM | Kd (human Gal-12 [10]): 0.08 ± 0.009 mM
CC(=O)NC1C(OC2C(O)C(CO)OC(OC3C(CO)OC(O)C(O)C3OC3OC(C)C(O)C(O)C3O)C2O)OC(CO)C(O)C1OC1OC(CO)C(O)C(O)C1O (stereo not drawn) [LNFP V, lacto-N-fucopentaose V] | 8.9 ± 1 | 7.2 ± 0.3 | 2.6 mM and 2.61 mM | 2.7 ± 0.5 mM | 25.1 ± 0.5 mM | 
OC[C@H]1O[C@@H](O[C@H]2[C@H](O)[C@@H](O)C(O)O[C@@H]2CO)[C@H](O)[C@@H](O)[C@H]1O (mixture of isomers) [Lac, lactose] | 82.1 ± 0.8 | 3 ± 0.6 |  |  | 23.1 mM | 
CC(=O)NC1C(OC2C(O)C(CO)OC(OC3C(O)C(CO)OC(O)C3NC(C)=O)C2OC2OC(C)C(O)C(O)C2O)OC(CO)C(O)C1O (stereo not drawn) [BGA1, blood group A antigen 1] | 30.3 ± 9 | 2.5 ± 0.8 | 6.2 mM and 6.19 mM | 1.2 ± 0.5 mM | 0.2 ± 0.1 mM | 
CC(=O)NC1C(O)CC(OC2C(O)C(CO)OC(OC3C(CO)OC(O)C(O)C3OC3OC(C)C(O)C(O)C3O)C2O)(C(=O)O)OC1C(O)C(O)CO (stereo not drawn) [SFL, 3’-sialyl-3-fucosyllactose] | 3.2 ± 0.4 | 4.8 ± 0.9 | 5.7 ± 0.1 mM | 39 ± 0.6 mM |  | Kd (human Gal-12 [10]): 0.151 ± 0.011 mM
CC(=O)NC1C(O)OC(CO)C(OC2OC(CO)C(O)C(OC3(C(=O)O)CC(O)C(NC(C)=O)C(C(O)C(O)CO)O3)C2O)C1O (stereo not drawn) [3’-SLacNAc, 3’-sialyl-N-acetyllactosamine] | 9.8 ± 1 | 2.2 | 2.2 ± 0.04 mM | 4.8 ± 0.3 mM |  | 
